# According to patent US20110152166A1, “METHOD OF MODULATION OF PROTEIN PHOSPHORYLATION-DEPENDENT CONFORMATIONAL TRANSITIONS WITH LOW MOLECULAR WEIGHT COMPOUNDS” (priority 2006, published 2011):
# Changes are numbered by the printed parent chain. Ends that are not written are not given here.
# Tests used:
# Assay type in all cases: biochemical
# GST-PDK1 [Leu155Ser] = target: T1, GST-PDK1 [Leu155Ser] (Homo sapiens, UniProt O15530, L155S); experiment: PDK1 activity assay with T308tide; conditions: for AC50: GST-PDK1 [Leu155Ser]
# T1 construct: different protein constructs, comprising the full length protein or the catalytic domain alone; made in house; host or cells: HEK293 cells (pEBG-2T-PDK1 mutant)
# T1 sequence (O15530 1-556 L155S): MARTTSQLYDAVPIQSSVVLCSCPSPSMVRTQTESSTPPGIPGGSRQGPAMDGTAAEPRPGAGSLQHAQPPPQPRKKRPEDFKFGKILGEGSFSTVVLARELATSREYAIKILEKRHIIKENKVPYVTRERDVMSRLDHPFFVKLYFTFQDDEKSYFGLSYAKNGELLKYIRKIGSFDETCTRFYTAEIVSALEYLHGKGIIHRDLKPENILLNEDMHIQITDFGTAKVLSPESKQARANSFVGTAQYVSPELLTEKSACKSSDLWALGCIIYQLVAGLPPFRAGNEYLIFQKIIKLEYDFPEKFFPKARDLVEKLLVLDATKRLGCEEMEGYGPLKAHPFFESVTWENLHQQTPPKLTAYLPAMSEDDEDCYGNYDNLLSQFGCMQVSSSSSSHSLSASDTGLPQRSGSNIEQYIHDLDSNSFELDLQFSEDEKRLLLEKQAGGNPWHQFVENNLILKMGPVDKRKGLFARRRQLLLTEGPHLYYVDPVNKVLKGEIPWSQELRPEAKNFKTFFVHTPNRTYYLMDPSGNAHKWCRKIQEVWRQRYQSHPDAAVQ
# GST-PDK1 [Phe157Met] = target: T2, GST-PDK1 [Phe157Met] (Homo sapiens, UniProt O15530, F157M); experiment: PDK1 activity assay with T308tide
# T2 construct: different protein constructs, comprising the full length protein or the catalytic domain alone; made in house; host or cells: HEK293 cells (pEBG-2T-PDK1 mutant)
# T2 sequence (O15530 1-556 F157M): T1 sequence (O15530 1-556 L155S) with S155L, F157M
# PKA = target: T3, PKA (Homo sapiens, UniProt P17612); experiment: AGC kinase panel activity assay (Kemptide); conditions: for PKA (%) activity: 1% DMSO = 100%
# T3 construct: purchased Sigma
# Method: (§1) Protein kinase activity tests were performed essentially as previously described (Balendran et al., 2000; Biondi et al., 2000; Biondi et al., 2001). Substrates used were either MBP (for PKCζ or polypeptides (Crosstide for PKB, S6K, SGK and PRK2; T308tide for PDK1, and Kemptide for PKA). PKA (Sigma) was measured in the presence of 100 μM cAMP. Alternatively, assays were performed in a 96 well format, aliquots spotted on p81 phosphocellulose papers (Whatmann), washed in 0.01% phosphoric acid, dried, and then exposed and analysed using Phospholmager technology (Storm, Molecular Dynamics). Activity measurements were performed in duplicates with less than 10% difference between duplicate pairs. Experiments were repeated at least twice, although most of the experiments were repeated multiple times, with similar results.
# (§2) Activity assays for each kinase were performed as described in Materials and Methods in the presence of 1% DMSO (100%). Except PKA, all protein kinases were produced as a GST-fusion. S6K1, PKBα, SGK mutants used were S6K1-T2-[Thr412Glu], PKBa[Ser473Asp] and ΔN-SGK[Ser422Asp].
# PRK2 = target: T4, PRK2 (Homo sapiens, UniProt Q16513); experiment: AGC kinase panel activity assay (Crosstide); conditions: for PRK2 (%) activity: 1% DMSO = 100%
# T4 construct: made in house; host or cells: HEK293
# Method: as §1, §2
# T4 sequence (Q16513 501-984): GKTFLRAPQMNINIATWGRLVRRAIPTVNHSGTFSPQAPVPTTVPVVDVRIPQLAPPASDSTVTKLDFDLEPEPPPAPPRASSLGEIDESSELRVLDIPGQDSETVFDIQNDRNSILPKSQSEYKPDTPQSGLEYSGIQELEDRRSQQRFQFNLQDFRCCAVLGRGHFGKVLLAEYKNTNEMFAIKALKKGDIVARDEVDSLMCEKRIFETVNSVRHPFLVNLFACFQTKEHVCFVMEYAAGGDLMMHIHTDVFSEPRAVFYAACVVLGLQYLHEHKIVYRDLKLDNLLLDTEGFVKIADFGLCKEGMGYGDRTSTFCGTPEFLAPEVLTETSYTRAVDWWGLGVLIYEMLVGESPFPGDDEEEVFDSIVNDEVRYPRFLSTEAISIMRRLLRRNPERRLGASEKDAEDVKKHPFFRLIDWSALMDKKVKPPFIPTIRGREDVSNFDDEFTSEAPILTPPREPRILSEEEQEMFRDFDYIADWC
AC50 (GST-PDK1 [Leu155Ser]),"activation of PDK1 mutant (in words) (GST-PDK1 [Leu155Ser]; Leu155 replaced with Ser, constitutively active)",AC50 (GST-PDK1 [Phe157Met]),Max. activity (GST-PDK1 [Phe157Met]),effect on PKA activity (in words) (PKA; 20 μM),PKA (%) activity (PKA; 20 μM compound),PKA (%) activity (PKA; 200 μM compound),effect on PRK2 activity (in words) (PRK2; 20 μM),PRK2 (%) activity (PRK2; 20 μM compound),PRK2 (%) activity (PRK2; 200 μM compound),Compound
No Effect,could not be further activated,140 ± 100 µM,0.9 ± 0.3 U/mg,no significant effect,100%,94%,no significant effect,103%,110%,O=C(O)CSC(CC(=O)c1ccc(Cl)cc1)c1ccccc1 (centres unmarked) [Compound 1]
–,–,–,–,–,109%,103%,–,106%,89%,COC(=O)CSC(CC(=O)c1ccc(Cl)cc1)c1ccccc1 (centres unmarked) [Compound 2]
No Effect,–,1.52 ± 0.59 µM,1.7 ± 0.24 U/mg,–,–,–,–,–,–,"REPRILSEEEQEMFRDFDYIADWC [PIFtide, reference compound]"
